Reference: ChEMBL document CHEMBL1150728, “Antimalarial agents, 4. Synthesis of a brusatol analog and biological activity of brusatol-related compounds” (1987)
≈ marks a conversion by molar mass, not a printed value.

system: Plasmodium falciparum; assay: Antimicrobial activity against chloroquine-resistant Plasmodium falciparum Smith; format: functional; settings: read-out: ED50 (the source's name)

Row | Structure (SMILES) | EC50 [µg/mL]
1 | COC(=O)[C@]12OC[C@]34[C@H]([C@@H](O)[C@@H]1O)[C@@]1(C)CC(=O)C(O)=C(C)[C@@H]1C[C@H]3OC(=O)[C@H](OC(=O)C=C(C)C)[C@@H]24 [BRUSATOL] | 0.00758 (≈ 0.0146 µM)
2 | COC(=O)[C@@]12OC[C@]34[C@H]([C@@H](O)[C@@H]1O)[C@@]1(C)C=C(O[C@@H]5O[C@H](CO)[C@@H](O)[C@H](O)[C@H]5O)C(=O)[C@@H](C)[C@@H]1C[C@H]3OC(=O)[C@H](OC(=O)C=C(C)C)[C@@H]24 [BRUCEOSIDE A] | 0.581 (≈ 0.851 µM)
3 | COC(=O)[C@@]12OC[C@]34[C@H]([C@@H](O)[C@@H]1O)[C@@]1(C)CC(=O)C(O)=C(C)[C@@H]1C[C@H]3OC(=O)[C@H](O)[C@@H]24 [BRUCEOLIDE] | 0.0752 (≈ 0.172 µM)
4 | CCCCCC/C=C/C(=O)O[C@H]1C(=O)O[C@@H]2C[C@H]3C(C)=C(O)C(=O)C[C@]3(C)[C@H]3[C@@H](O)[C@H](O)[C@@]4(C(=O)OC)OC[C@]32[C@@H]14 | 0.0617 (≈ 0.107 µM)
